The values below come from ChEMBL document CHEMBL1914306, “The design, synthesis and biological evaluation of novel URB602 analogues as potential monoacylglycerol lipase inhibitors” (Bioorg Med Chem Lett, 2011).

The target in experiment [1] is T1, Monoglyceride lipase (Homo sapiens) (UniProt Q99685).
T1 sequence (whole entry): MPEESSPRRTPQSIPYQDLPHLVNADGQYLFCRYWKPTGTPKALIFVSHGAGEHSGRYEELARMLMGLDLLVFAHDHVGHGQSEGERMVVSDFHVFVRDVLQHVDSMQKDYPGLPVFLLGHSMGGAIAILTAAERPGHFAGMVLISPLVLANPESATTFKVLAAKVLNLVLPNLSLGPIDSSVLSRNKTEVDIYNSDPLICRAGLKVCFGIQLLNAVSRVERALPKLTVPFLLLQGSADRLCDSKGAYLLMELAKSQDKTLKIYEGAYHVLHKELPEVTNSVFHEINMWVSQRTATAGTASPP
The experiment can be described thus: Inhibition of human recombinant MAGL assessed as remaining activity at 10 uM after 10 mins by spectrophotometry relative to control.

Experiment [2] has as its target T1, Monoglyceride lipase (Homo sapiens). The experiment is described as follows: Inhibition of human recombinant MAGL assessed as remaining activity at 1 uM after 10 mins by spectrophotometry relative to control.
Experiment [3] has the same target. The experiment can be described thus: Inhibition of human recombinant MAGL assessed as remaining activity at 100 uM after 10 mins by spectrophotometry relative to control.
Experiment [4] has the same target. The experiment can be described thus: Inhibition of MAGL assessed as remaining activity using 4-nitrophenylacetate as substrate at 10 uM relative to control.

With `O=C(Nc1cccc(-c2ccccc2)c1)OC1CCCCCCC1`, the Activity in experiment [1] was 92%; in experiment [2] it was 101%.

As to `O=C(Nc1cccc(-c2ccccc2)c1)NC1CCCCC1`, the Activity in experiment [3] is 78%; in experiment [1], 79%; in experiment [2], 98%.

Turning to `O=C(Nc1cccc(-c2ccc(Cl)cc2)c1)OC1CCCCC1`, the Activity was determined as 81% in experiment [3], 81% in experiment [1] and 85% in experiment [2].

With `O=C(Nc1cccc(-c2ccccc2)c1)OC1CCCCC1`, the Activity in experiment [3] was 73%; in experiment [1], 71%; in experiment [4], 84%; in experiment [2] it was 93%.

Consider `O=C(Nc1cccc(-c2ccccc2)c1)NC1CCCCCC1`, for which the Activity in experiment [3] turned out to be 55%; in experiment [1], 80%; in experiment [2], 96%.

For the compound `O=C(Nc1cccc(-c2ccccc2)c1)NC1CCCC1`, the Activity in experiment [1] worked out at 73%; in experiment [2], 80%.

Consider `O=C(Nc1cccc(-c2ccccc2)c1)OC1CCCC1`, for which the Activity in experiment [1] worked out at 71%; in experiment [2], 93%.

As for `S=C(Nc1cccc(-c2ccccc2)c1)OC1CCCCCC1`, the results for the Activity in experiment [1] and in experiment [2] were 83% and 79%, respectively.

Consider `CC(C)[C@@H]1CC[C@@H](C)C[C@H]1OC(=O)Nc1cccc(-c2ccccc2)c1`, for which the Activity in experiment [1] turned out to be 101%; in experiment [2], 106%.

Turning to `O=C(Nc1cccc(-c2ccc(O)cc2)c1)OC1CCCCC1`, the Activity is 26% in experiment [3], 46% in experiment [1] and 83% in experiment [2].

As for `S=C(Nc1cccc(-c2ccccc2)c1)NC1CCCCC1`, the figures for the Activity in experiment [1] and in experiment [2] were 76% and 93%, respectively.

As for `O=C(Nc1cccc(-c2ccccc2)c1)OC1CCCCCC1`, the Activity in experiment [1] worked out at 71%; in experiment [2], 94%.

`O=C(Nc1cccc(-c2ccccc2)c1)O[C@H]1C[C@H]2CC[C@@H]1C2`: the Activity amounted to 79% in experiment [1] and 95% in experiment [2].

For the compound `O=C(Nc1cccc(-c2ccccc2)c1)OC1CCC1`, the Activity in experiment [3] was found to be 85%; in experiment [1], 86%; in experiment [2], 97%.

For the compound `S=C(Nc1cccc(-c2ccccc2)c1)OC1CCCCC1`, the Activity amounted to 83% in experiment [1] and 73% in experiment [2].
